Patent publication US8673554B2, “Multiplex cell signalling assays” (Ge Healthcare UK Limited, priority 2008, dated 2014)

Key:
Type in all cases: cell-based, human
[1] = tested on: EGFP-NFATc1 transfected U2OS cells; experiment: EGFP-NFATc1 translocation assay, Nuclear Trafficking Analysis module; conditions: 60 minutes incubation; FIG. 11 / FIG. 14
From the text: The present patent specification describes a method for monitoring the NFATC1 signalling pathway with a cell-secreted, cell-associated analyte. The assay method is based on the intracellular translocation of an EGFP-NFATc1 fusion protein in stably transfected mammalian cells. NFATc1 is a transcription factor involved in T-cell signalling and tissue development. […] Following activation with agonists these translocate to the nucleus.
The NFAT assay is optimised for image acquisition and analysis on the IN Cell Analysis System (GE Healthcare) using the Nuclear Trafficking-Analysis Module, although the assay can be imaged on other systems. The Nuclear Trafficking-Analysis Module measures the degree of EGFP-NFAT translocation from the cytoplasm to the nucleus on the addition of agonists.
• 1. Incubate the microplate at 37° C., 5% CO2 and 95% humidity. • 2. The day before commencing the assay, seed at 1×10^4 cells per well in 200 μl of growth medium. Incubate for 24 hours at 37° C. If one of the wells on the cell plate is used for flat field correction, it should not contain cells. • 3. […]
• 1. […] Cells were contacted with test agent for a further 3-18 hours and cell associated TNF, IL-8 or PDGF was measured post stimulation with test agent. • 8. […] The results were analysed using an object intensity algorithm (IN Cell Investigator software). […]

U2OS cells [2] = experiment: Cell-associated IL-6, chemiluminescent anti-IL-6-HRP assay on LEADSEEKER imaging system, same cells after the calcium transient; conditions: after stimulation (A23187 4 hours, histamine overnight); FIG. 3 / FIG. 5
Procedure: Cells were contacted with the test agent (calcium ionophore A23187) for 4 hours and cell-associated IL-6 measured post cell-stimulation with the test agent. After stimulation, the cell supernatant was decanted, the cells were washed thoroughly X3 with PBS, before incubating with the anti-IL-6 antibody. The cells were washed ×3 with PBS before addition of the chemiluminescent substrate. Results from the calcium transient were obtained prior to the IL-6 results using the same population of cells. The results (FIG. 3) were obtained using a […] ™ Multimodality Imaging System, exposing for 20 seconds, using the chemiluminescent substrate and the luminescent signal reporter (anti-IL-6 labelled with the enzyme horseradish peroxidise).
The results were obtained on the […] ™ Multimodality Imaging System, exposing for 20 seconds, using the chemiluminescent substrate and the luminescent signal reporter (anti-IL-6 labelled with the enzyme horseradish peroxidise).
iv) 5 mg of calcium ionophore A23187 was dissolved in 1 ml of DMSO. The ionophore was subsequently diluted in complete maintenance buffer to give final concentration of ionophore over the range of 1.56-100 μM. Fluo-4 dye was prepared by adding 456 μl DMSO to a 50 μg vial, and the vial was mixed well to provide a Fluo-4 stock concentration of 100 μM. […]

U2OS cells [3] = experiment: Cell-associated IL-6 immunocytochemistry (Cy5 second antibody) combined with intracellular calcium, IN Cell Analyzer 1000; conditions: 4 hours contact; Example 4, FIG. 8
Procedure: 4. Combination Assay of Intracellular Calcium and Human Interleukin-6 from Calcium Ionophore A23187-Stimulated U2OS Cells on IN Cell Analyzer 1000 4.1 Materials Anti-IL-6 (R&D Systems) Goat anti-human IgG CY™ 5 linked (GE Healthcare) Calcium ionophore A23187 (Sigma) U2OS cells (European Collection of Cell Cultures, Porton Down, UK) 4.2 Method and Results i) U2OS cells were seeded into 96-well tissue culture plates at 6000 cell/well in 100 μl of complete McKoys media and incubated overnight at 37° C., 5% CO2. ii) Cells were stimulated with A23187 for 8 minutes before measurement of a calcium transient on an IN Cell Analyzer 1000 as described in Example 1. […] The results from this assay were measured on an IN Cell Analyzer 1000 using a 10× objective, 505 light pass dichroic 475/535 filter set 200 ms exposure. […] Cells were contacted with the test agent (calcium ionophore A23187) for 4 hours and cell-associated IL-6 measured post cell-stimulation with test agent. After stimulation with the ionophore, the supernatant was decanted and the cells were washed thoroughly X3 with PBS. […] The results were analysed using an object intensity algorithm (IN Cell Investigator software). […]

U2OS cells [4] = experiment: Calcium transient (Fluo-4 fluorescence) in stimulated U2OS cells, IN Cell Analyzer 1000; conditions: for cytosolic intracellular calcium (emitted fluorescence of Fluo-4): test agent 1.56-100 μM, over eight minutes, peak and decline, dose dependent, FIG. 1 / FIG. 4
Procedure: i) U2OS cells were seeded into 96-well Greiner cluster plates at 6000 cell/well in 100 μl of complete McKoys media and incubated overnight at 37° C., 5% CO2.
ii) Loading buffer was prepared with 42.8 ml of calcium flux buffer with 6.65 ml of 7.5% albumin This buffer was stored at 37° C.
iii) 120 ml of maintenance buffer was prepared with 118.16 ml calcium flux buffer and 1840 μl of 7.5% albumin

[5] = tested on: EGFP-NFAT1c transfected U2OS cells; experiment: Cell-associated PDGF immunofluorescence combined with EGFP-NFAT1c translocation; conditions: further 3-18 hours contact; FIG. 12
Procedure: • 1. The day before commencing the assay, seed EGFP-NFATc1 transfected U2OS cells at 1×10^4 cellsper well in 200 μl of growth medium. • 2. On the day of the assay, prepare the test agent (ionomycin, ionomycin+PMA, A23187). These samples are typically prepared in assay medium. • 3. Decant the growth medium from the cell plate, removing all excess liquid and add 200 μl. Using the cell culture medium, wash the cells. Decant the wash. • 4. Add […] assay medium containing test agent. Incubate for 60 minutes. • 5. The total volume is 200 μl. After the suitable incubation period, image the plate on the IN Cell Analyzer 1000 using appropriate filters and dichroic mirror. • 6. Carry out the data analysis using the Nuclear Trafficking Analysis module. • 7. Cells were contacted with test agent for a further 3-18 hours and cell associated TNF, IL-8 or PDGF was measured post stimulation with test agent. • 8. After stimulation with the test agent, the supernatant was decanted and the cells were washed ×3 with PBS. […] The results were analysed using an object intensity algorithm (IN Cell Investigator software). […]

Row | Compound | EGFP-NFAT1c translocation [1] | cell-associated IL-6 (U2OS cells [2]) | cell-associated IL-6 with increasing concentration of the ionophore (U2OS cells [3]) | intracellular calcium compared with the unstimulated (zero ionophore) control (U2OS cells [4]; 1.56 μM ionophore, 8 minutes stimulation, FIG. 7) | intracellular calcium with increasing concentration of the ionophore (U2OS cells [4]; Example 4, FIG. 8) | cytosolic intracellular calcium (emitted fluorescence of Fluo-4) (U2OS cells [4]) | cell-associated PDGF release [5]
1 | CNc1ccc2oc(C[C@H]3O[C@@]4(CC[C@H]3C)O[C@H]([C@H](C)C(=O)c3ccc[nH]3)[C@H](C)C[C@H]4C)nc2c1C(=O)O [calcium ionophore A23187, Calcium ionophore A23187] | EGFP-NFAT1c cell response | increase in cell-associated IL-6 | dose-dependent rise | increase in intracellular calcium | dose-dependent rise | increase in cytosolic intracellular calcium | –
2 | NCCc1c[nH]cn1 [histamine, Histamine] | – | increase in cell-associated IL-6 | – | – | – | increase in cytosolic intracellular calcium | –
3 | C[C@H](CCC(=O)O)C[C@H](C)C[C@H](C)C(=O)/C=C(\O)[C@H](C)C[C@H](C)C/C=C/[C@@H](C)[C@@H](O)[C@@H](C)[C@@H](O)C[C@@H]1CC[C@@](C)([C@H]2CC[C@@](C)([C@@H](C)O)O2)O1 [ionomycin, Ionomycin] | EGFP-NFAT1c cell response | – | – | – | – | – | PDGF release
